Measurements taken from patent US6759546B1, “3,5-di-iso-propyl-heptatrienoic acid derivatives having serum glucose reducing activity” (Allergan, Inc., priority 2003, dated 2004).
Changes are numbered by the printed parent chain. pEC50, pKi: −log10 of the molar value. Read-outs that look alike come from different tables or passages of the source.

How the values were obtained:
[1] = target: T1, RARα (Homo sapiens, UniProt P10276); experiment: ligand binding assay; conditions: read-out: RAR Bind. Ki α
T1 sequence (P10276 1-462): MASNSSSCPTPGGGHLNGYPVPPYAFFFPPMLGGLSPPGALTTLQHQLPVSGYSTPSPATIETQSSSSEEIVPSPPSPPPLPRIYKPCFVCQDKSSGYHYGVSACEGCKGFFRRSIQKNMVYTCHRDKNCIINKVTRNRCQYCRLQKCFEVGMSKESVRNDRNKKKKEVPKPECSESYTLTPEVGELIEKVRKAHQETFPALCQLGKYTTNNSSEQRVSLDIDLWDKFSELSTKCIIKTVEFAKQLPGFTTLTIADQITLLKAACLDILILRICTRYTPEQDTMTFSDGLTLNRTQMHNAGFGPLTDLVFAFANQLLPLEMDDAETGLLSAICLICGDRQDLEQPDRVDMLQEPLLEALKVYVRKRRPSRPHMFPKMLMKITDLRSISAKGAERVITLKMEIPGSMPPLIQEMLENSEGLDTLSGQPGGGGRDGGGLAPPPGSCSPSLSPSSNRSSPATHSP
Excerpt: (§1) The results of the ligand binding assay are expressed in Ki numbers.

[2] = target: T2, RARβ (Homo sapiens, UniProt P10826); experiment: ligand binding assay; conditions: read-out: RAR Bind. Ki β
T2 sequence (P10826 1-455): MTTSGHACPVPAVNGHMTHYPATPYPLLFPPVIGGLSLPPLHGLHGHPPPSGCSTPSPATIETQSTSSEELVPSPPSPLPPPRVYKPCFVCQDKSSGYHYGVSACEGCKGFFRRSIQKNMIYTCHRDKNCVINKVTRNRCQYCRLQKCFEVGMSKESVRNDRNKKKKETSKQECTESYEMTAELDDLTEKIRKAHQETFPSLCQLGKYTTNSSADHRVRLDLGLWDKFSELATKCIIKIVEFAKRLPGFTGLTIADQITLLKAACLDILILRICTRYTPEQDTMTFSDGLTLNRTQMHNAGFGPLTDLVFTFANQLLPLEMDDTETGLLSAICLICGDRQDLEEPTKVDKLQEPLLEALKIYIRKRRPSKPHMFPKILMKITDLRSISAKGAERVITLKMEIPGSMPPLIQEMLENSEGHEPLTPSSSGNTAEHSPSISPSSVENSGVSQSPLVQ
Excerpt: as §1

[3] = target: T3, RARγ (Homo sapiens, UniProt P13631); experiment: ligand binding assay; conditions: read-out: RAR Bind. Ki γ
T3 sequence (P13631 1-454): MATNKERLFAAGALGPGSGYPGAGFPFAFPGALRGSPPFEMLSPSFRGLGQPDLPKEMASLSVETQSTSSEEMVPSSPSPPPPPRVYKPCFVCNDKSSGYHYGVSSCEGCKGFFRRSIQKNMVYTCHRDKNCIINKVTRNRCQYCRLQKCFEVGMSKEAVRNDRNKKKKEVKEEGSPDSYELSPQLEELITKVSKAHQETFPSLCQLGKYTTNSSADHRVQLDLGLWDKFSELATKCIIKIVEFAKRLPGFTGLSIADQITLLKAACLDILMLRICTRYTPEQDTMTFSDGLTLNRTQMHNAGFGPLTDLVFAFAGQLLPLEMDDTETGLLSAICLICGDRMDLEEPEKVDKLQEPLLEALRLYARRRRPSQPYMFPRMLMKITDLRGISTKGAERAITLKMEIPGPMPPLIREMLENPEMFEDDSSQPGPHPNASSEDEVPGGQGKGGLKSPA
Excerpt: as §1

[4] = target: T4, RXRα (Homo sapiens, UniProt P19793); experiment: holoreceptor transactivation assay; format: cell-based; conditions: for pEC50: holoreceptor assay, read-out: RXR Trans. EC50 α; for RXR Trans. efficacy α: percentage compared to the standard compound
T4 construct: expressed in transfected cells
T4 sequence (P19793 1-462): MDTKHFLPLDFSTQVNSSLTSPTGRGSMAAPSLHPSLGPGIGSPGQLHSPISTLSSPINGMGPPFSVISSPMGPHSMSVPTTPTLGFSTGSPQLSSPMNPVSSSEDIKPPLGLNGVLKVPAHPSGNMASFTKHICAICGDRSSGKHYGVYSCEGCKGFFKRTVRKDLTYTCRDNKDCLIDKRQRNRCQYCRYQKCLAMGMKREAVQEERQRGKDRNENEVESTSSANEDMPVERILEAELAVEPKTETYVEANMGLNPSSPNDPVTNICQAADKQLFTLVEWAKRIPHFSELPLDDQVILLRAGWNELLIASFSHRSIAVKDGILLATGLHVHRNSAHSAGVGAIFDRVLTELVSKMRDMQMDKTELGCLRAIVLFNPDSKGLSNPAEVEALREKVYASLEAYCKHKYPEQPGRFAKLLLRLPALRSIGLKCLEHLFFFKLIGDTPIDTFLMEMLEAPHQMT
Excerpt: (§2) The results obtained in this assay are expressed in EC50 numbers, as they are also in the chimeric receptor transactivation assay.
(§3) Particularly, the transactivation data pertaining to activation of the RAR receptors were obtained in the chimeric assay, and the transactivation data pertaining to the activation of RXR receptors were obtained in the holoreceptor assay.

[5] = target: T4, RXRα; experiment: ligand binding assay; conditions: read-out: RXR Bind. Ki α
Excerpt: as §1

[6] = target: T5, RXRβ (Homo sapiens, UniProt P28702); experiment: ligand binding assay; conditions: read-out: RXR Bind. Ki β
T5 sequence (P28702 1-533): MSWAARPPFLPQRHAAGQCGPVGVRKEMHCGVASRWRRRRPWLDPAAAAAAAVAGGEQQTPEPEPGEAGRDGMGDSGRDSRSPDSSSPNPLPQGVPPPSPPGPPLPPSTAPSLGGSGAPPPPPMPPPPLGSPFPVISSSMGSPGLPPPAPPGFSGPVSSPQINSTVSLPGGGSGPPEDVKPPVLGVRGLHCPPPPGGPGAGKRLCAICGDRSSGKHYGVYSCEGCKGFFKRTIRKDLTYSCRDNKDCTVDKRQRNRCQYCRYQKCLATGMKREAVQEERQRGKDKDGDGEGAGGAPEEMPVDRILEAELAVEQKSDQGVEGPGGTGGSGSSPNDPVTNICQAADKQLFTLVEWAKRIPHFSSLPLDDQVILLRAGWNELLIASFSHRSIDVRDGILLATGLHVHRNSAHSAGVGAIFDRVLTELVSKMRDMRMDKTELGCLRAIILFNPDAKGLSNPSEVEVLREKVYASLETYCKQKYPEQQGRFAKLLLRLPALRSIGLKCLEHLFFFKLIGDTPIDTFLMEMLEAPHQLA
Excerpt: as §1

[7] = system: female diabetic db/db mice; experiment: serum glucose, triglyceride and thyroxine levels in db/db mice; format: in vivo; conditions: for Glucose Day 0 / Triglycerides Day 0: day 0 (pre-treatment)
Protocol: An assay described below tests the effect of compounds of the invention on serum glucose, tryglyceride and thyroxine levels in female 9-10 weeks old db/db mice.
Blood samples (70 μl) were taken by orbital bleeding at 11:00 AM on day 0 (pre-treatment), day 3, and day 6. On day 7, a blood sample (700 μl) was taken at 11:00 AM and the animals were sacrificed. Glucose, triglyceride and thyroxine (T4) levels were determined on a Boehringer Manheim Hatachi Clinical Chemistry Analyzer using standard protocols provided by the manufacturer and reagents that were supplied in commercially available kits (glucose and T4: Boehringer Manheim; triglycerides: Roche Diagnostics). Seven animals were treated in each group.

[8] = target: T6, RXRβ (UniProt P28704); experiment: holoreceptor transactivation assay
T6 sequence (P28704 1-520): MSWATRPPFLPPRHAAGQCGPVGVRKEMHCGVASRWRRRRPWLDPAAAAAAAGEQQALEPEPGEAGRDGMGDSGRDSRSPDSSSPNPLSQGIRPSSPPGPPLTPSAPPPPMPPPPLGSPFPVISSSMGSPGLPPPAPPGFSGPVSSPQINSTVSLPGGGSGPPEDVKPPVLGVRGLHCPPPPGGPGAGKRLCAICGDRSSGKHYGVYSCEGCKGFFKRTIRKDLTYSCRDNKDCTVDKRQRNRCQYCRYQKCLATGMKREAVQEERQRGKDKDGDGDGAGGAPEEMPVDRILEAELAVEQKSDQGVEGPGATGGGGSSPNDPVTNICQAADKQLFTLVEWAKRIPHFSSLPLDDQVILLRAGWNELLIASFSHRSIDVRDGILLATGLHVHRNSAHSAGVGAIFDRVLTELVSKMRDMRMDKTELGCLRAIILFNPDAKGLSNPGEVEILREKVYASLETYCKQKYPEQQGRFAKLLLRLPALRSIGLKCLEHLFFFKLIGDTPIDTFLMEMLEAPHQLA
Excerpt: as §2, §3

[9] = target: T7, RXRγ (UniProt P28705); experiment: holoreceptor transactivation assay; conditions: percentage compared to the standard compound
T7 sequence (P28705 1-463): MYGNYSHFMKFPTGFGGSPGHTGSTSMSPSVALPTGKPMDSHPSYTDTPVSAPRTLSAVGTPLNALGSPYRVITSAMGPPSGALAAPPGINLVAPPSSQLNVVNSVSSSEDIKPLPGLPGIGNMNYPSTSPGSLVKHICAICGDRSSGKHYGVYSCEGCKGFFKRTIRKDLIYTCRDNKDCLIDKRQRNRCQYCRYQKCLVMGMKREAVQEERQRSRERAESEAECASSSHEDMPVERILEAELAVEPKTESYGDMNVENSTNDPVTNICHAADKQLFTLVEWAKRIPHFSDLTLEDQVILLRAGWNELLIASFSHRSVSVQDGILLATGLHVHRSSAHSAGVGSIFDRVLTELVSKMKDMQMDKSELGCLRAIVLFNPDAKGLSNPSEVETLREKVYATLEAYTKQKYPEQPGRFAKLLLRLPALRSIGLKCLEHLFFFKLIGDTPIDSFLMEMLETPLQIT
Excerpt: as §2, §3

[10] = target: T8, RXRγ (Homo sapiens, UniProt P48443); experiment: ligand binding assay; conditions: read-out: RXR Bind. Ki γ
T8 sequence (P48443 1-463): T7 sequence (P28705 1-463) with T13A, F15Y, V31A, P34S, S228T, S230G, V258M, S450T
Excerpt: as §1

[11] = Table 3, 50 mg/kg oral gavage daily
[12] = percentage compared to the standard compound
[13] = Table 2, 50 mg/kg oral gavage daily
[14] = Table 2, 5 mg/kg oral gavage daily
[15] = Table 3, 5 mg/kg oral gavage daily

CCCOc1c(\C(=C/C=C/C(C)=C/C(=O)O)CC)cc(C(C)C)cc1C(C)C [Compound 8, 7-(3,5-Diisopropyl-2-propoxy-phenyl)-3-methyl-nona-2,4,6-trienoic acid]
pKi [1]: 6.77 | pKi [2]: 7.10 | pKi [3]: 6.51 | pEC50 [4]: 9.00 | RXR Trans. efficacy α [4]: 33% | pKi [5]: 9.00 | pKi [6]: 7.92 | Glucose Day 0 [7, 11]: 468 mg/dL | Triglycerides Day 0 [7, 11]: 173 mg/dL | Glucose Day 3, 3 h [7, 11]: 443 mg/dL | Triglycerides Day 3, 3 h [7, 11]: 278 mg/dL | Glucose Day 6, 3 h [7, 11]: 384 mg/dL | T4 Day 7 [7, 11]: 3.0 µg/dL | RXR Trans. efficacy β [8, 12]: 29% | RXR Trans. efficacy γ [9]: 21%

CCCOc1c(\C(C)=C/C=C/C(C)=C/C(=O)O)cc(C(C)C)cc1C(C)C [Compound 16, 7-(3,5-Diisopropyl-2-propoxy-phenyl)-3-methyl-octa-2,4,6-trienoic acid]
pKi [1]: 6.51 | pKi [2]: 6.70 | pKi [3]: 6.26 | pEC50 [4]: 9.40 | RXR Trans. efficacy α [4]: 34% | pKi [5]: 9.00 | pKi [6]: 7.92 | pKi [10]: 7.68 | Glucose Day 0 [7, 13]: 365 mg/dL | Triglycerides Day 0 [7, 13]: 199 mg/dL | Glucose Day 3, 3 h [7, 13]: 283 mg/dL | Triglycerides Day 3, 3 h [7, 13]: 189 mg/dL | Glucose Day 6, 3 h [7, 13]: 309 mg/dL | T4 Day 7 [7, 13]: 2.2 µg/dL | RXR Trans. efficacy β [8, 12]: 33% | RXR Trans. efficacy γ [9]: 25%

CC(/C=C/[C@@H]1C[C@]1(C)c1ccc2c(c1)C(C)(C)CCC2(C)C)=C\C(=O)O [Standard compound]
RXR Trans. efficacy α [4]: 100% | Glucose Day 0 [7, 14]: 378 mg/dL | Triglycerides Day 0 [7, 14]: 171 mg/dL | Glucose Day 3, 3 h [7, 14]: 308 mg/dL | Triglycerides Day 3, 3 h [7, 14]: 472 mg/dL | Glucose Day 6, 3 h [7, 14]: 333 mg/dL | T4 Day 7 [7, 14]: 1.2 µg/dL | Glucose Day 0 [7, 15]: 409 mg/dL | Triglycerides Day 0 [7, 15]: 193 mg/dL | Glucose Day 3, 3 h [7, 15]: 369 mg/dL | Triglycerides Day 3, 3 h [7, 15]: 50 mg/dL | Glucose Day 6, 3 h [7, 15]: 378 mg/dL | T4 Day 7 [7, 15]: 1.4 µg/dL | effect on serum thyroxine levels ([7]; diabetic mammals, summary in words): reducing serum thyroxine levels | RXR Trans. efficacy β [8]: 0.4 (100) 1%
